Molecules are shown by their SMILES.

This note sets out measurements from patent US8673938B2, “Chemical compounds” (priority 2006, dated 2014).

For the assay, the target named is human 11βHSD1 enzyme (Homo sapiens (Human), UniProt P28845). Nature of the assay: biochemical. The conditions noted are these: read-out: % inhibition of human 11-βHSD.
human 11βHSD1 enzyme, sequence (P28845 whole entry): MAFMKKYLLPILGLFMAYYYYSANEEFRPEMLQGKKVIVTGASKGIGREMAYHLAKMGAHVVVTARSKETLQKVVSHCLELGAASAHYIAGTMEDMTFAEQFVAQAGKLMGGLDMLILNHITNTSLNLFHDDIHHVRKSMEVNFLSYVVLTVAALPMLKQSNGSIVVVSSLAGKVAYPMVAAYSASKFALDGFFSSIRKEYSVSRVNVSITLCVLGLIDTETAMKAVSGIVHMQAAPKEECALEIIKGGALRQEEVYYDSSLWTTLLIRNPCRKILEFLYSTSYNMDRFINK
By inhibition is commonly meant the change of the read-out against control, counted positive when it falls. For `CCCOc1nc(N2CCCC(C(C)(C)C(=O)O)C2)ccc1C(=O)N[C@H]1C2CC3CC1C[C@](O)(C3)C2` (stereo partly shown) [Example 110, 2-[1-[5-[((2r,5s)-5-hydroxy-2-adamantyl)carbamoyl]-6-propoxy-pyridin-2-yl]-3-piperidyl]-2-methyl-propanoic acid], the inhibition at 30 µM was 95%.

Consider `CCCSc1nc(N2CCC[C@@H](CC(=O)O)C2)ccc1C(=O)N1CCC(c2cccnc2)C1` (stereo partly drawn) [Example 113, 2-[(3S)-1-[6-propylsulfanyl-5-(3-pyridin-3-ylpyrrolidine-1-carbonyl)pyridin-2-yl]-3-piperidyl]acetic acid], for which the inhibition at 30 µM worked out at 90%. The same measure for `CCCSc1nc(N2CCC[C@@H](CC(=O)O)C2)ccc1C(=O)N1CCC(c2ccccn2)C1` (stereo partly drawn) [Example 114, 2-[(3S)-1-[6-propylsulfanyl-5-(3-pyridin-2-ylpyrrolidine-1-carbonyl)pyridin-2-yl]-3-piperidyl]acetic acid]: 101%; for `CCCSc1nc(N2CCC[C@@H](CC(=O)O)C2)ccc1C(=O)N1CCCCC1` [Example 115, 2-[(3S)-1-[5-(piperidine-1-carbonyl)-6-propylsulfanyl-pyridin-2-yl]-3-piperidyl]acetic acid]: 93%. Under `CCCSc1nc(N2CCC[C@@H](CC(=O)O)C2)ccc1C(=O)N1CCC(c2cnccn2)C1` (stereo partly drawn) [Example 116, 2-[(3S)-1-[6-propylsulfanyl-5-(3-pyrazin-2-ylpyrrolidine-1-carbonyl)pyridin-2-yl]-3-piperidyl]acetic acid] stands 89%. The same measure for `CCCSc1nc(N2CCC[C@@H](CC(=O)O)C2)ccc1C(=O)N1CCCC(C(F)(F)F)C1` (stereo partly drawn) [Example 118, 2-[(3S)-1-[6-propylsulfanyl-5-[3-(trifluoromethyl)-piperidine-1-carbonyl]pyridin-2-yl]-3-piperidyl]acetic acid]: 101%. Regarding `CCCSc1nc(N2CCC[C@@H](CC(=O)O)C2)ccc1C(=O)N1CCC(C(F)(F)F)CC1` [Example 119, 2-[(3S)-1-[6-propylsulfanyl-5-[4-(trilfuoromethyl)piperidine-1-carbonyl]pyridin-2-yl]-3-piperidyl]acetic acid], the inhibition at 30 µM stood at 99%. On to `CCCSc1nc(N2CCC[C@@H](CC(=O)O)C2)ccc1C(=O)N1CCC(C(N)=O)CC1` [Example 120, 2-[(3S)-1-[5-(4-carbamoylpiperidine-1-carbonyl)-6-propylsulfanyl-pyridin-2-yl]-3-piperidyl]acetic acid], for which the inhibition at 30 µM was found to be 104%. Under `CCCSc1nc(N2CCC[C@@H](CC(=O)O)C2)ccc1C(=O)N(CC1CC1)C1CCCCC1` [Example 122, 2-[(3S)-1-[5-(cyclohexyl-(cyclopropylmethyl)carbamoyl)-6-propylsulfanyl-pyridin-2-yl]-3-piperidyl]acetic acid] stands 88%; under `CCCSc1nc(N2CCC[C@@H](CC(=O)O)C2)ccc1C(=O)N(CC)C1CCCCC1` [Example 123, 2-[(3S)-1-[5-(cyclohexyl-ethyl-carbamoyl)-6-propylsulfanyl-pyridin-2-yl]-3-piperidyl]acetic acid], 94%; under `CCCSc1nc(N2CCC[C@@H](CC(=O)O)C2)ccc1C(=O)N(C(C)C)C1CCCCC1` [Example 124, 2-[(3S)-1-[5-(cyclohexyl-propan-2-yl-carbamoyl)-6-propylsulfanyl-pyridin-2-yl]-3-piperidyl]acetic acid], 92%. Under `CCCSc1nc(N2CCC[C@@H](CC(=O)O)C2)ccc1C(=O)N[C@H]1CC[C@H](O)CC1` [Example 125, 2-[(3S)-1-[5-[(4-hydroxycyclohexyl)carbamoyl]-6-propylsulfanyl-pyridin-2-yl]-3-piperidyl]acetic acid] stands 102%; under `CCCSc1nc(N2CCC[C@@H](CC(=O)O)C2)ccc1C(=O)N1CCC(c2ccccc2C(F)(F)F)C1` (stereo partly drawn) [Example 126, 2-[(3S)-1-[6-propylsulfanyl-5-[3-[2-(trifluoromethyl)phenyl]pyrrolidine-1-carbonyl]pyridin-2-yl]-3-piperidyl]acetic acid], 87%; under `CCCSc1nc(N2CCC[C@@H](CC(=O)O)C2)ccc1C(=O)N[C@H]1C2CC3CC1C[C@@](S(C)(=O)=O)(C3)C2` [Example 126b, 2-[(3S)-1-[5-[((2r,5s)-5-methylsulfonyl-2-adamantyl)carbamoyl]-6-propylsulfanyl-pyridin-2-yl]-3-piperidyl]acetic acid], 99%.

As to `O=C(O)C[C@@H]1CCCN(c2ccc(C(=O)N3CCC(c4cccnc4)C3)c(SC3CCCC3)n2)C1` (stereo partly drawn) [Example 127, 2-[(3S)-1-[6-cyclopentylsulfanyl-5-(3-pyridin-3-ylpyrrolidine-1-carbonyl)pyridin-2-yl]-3-piperidyl]acetic acid], the inhibition at 30 µM is 96%.

With `CC(C)(O)C1CCCN(C(=O)c2ccc(N3CCC[C@@H](CC(=O)O)C3)nc2SC2CCCC2)C1` (stereo partly drawn) [Example 128, 2-[(3S)-1-[6-cyclopentylsulfanyl-5-[3-(2-hydroxypropan-2-yl)piperidine-1-carbonyl]pyridin-2-yl]-3-piperidyl]acetic acid], the inhibition at 30 µM is 91%. Regarding `O=C(O)C[C@H]1CCCN(c2ccc(C(=O)NC3CCCCC3)c(SCCc3ccccc3)n2)C1` [Example 129, 2-[(3R)-1-[5-(cyclohexylcarbamoyl)-6-phenethylsulfanyl-pyridin-2-yl]-3-piperidyl]acetic acid], the inhibition at 30 µM was determined as 82%.

In the case of `O=C(O)C[C@@H]1CCCN(c2ccc(C(=O)NC3CCCCC3)c(SCCc3ccccc3)n2)C1` [Example 130, 2-[(3S)-1-[5-(cyclohexylcarbamoyl)-6-phenethylsulfanyl-pyridin-2-yl]-3-piperidyl]acetic acid], the inhibition at 30 µM was 91%. The same measure for `CCCCc1nc(N2CC3C(C2)C3C(=O)O)ccc1C(=O)NC1C2CC3CC(C2)CC1C3` (stereo not shown) [Example 163, 3-[5-(2-adamantylcarbamoyl)-6-butyl-pyridin-2-yl]-3-azabicyclo[3.1.0]hexane-6-carboxylic acid]: 93%. The same measure for `CCCSc1nc(N2CCC[C@H](CC(=O)O)C2)ccc1C(=O)N(C)C1CCCCC1` [Example 168, 2-[(3R)-1-[5-(Cyclohexyl-methyl-carbamoyl)-6-propylsulfanyl-pyridin-2-yl]-3-piperidyl]acetic acid]: 108%; for `CCCSc1nc(N2CCC[C@@H](CC(=O)O)C2)ccc1C(=O)N(C)[C@H]1C2CC3CC1C[C@](OC)(C3)C2` [Example 170, [(3S)-1-[5-[((2r,5s)-5-Methoxyadamantan-2-yl)(methyl)carbamoyl]-6-(propylthio)pyridin-2-yl]piperidin-3-yl]acetic acid]: 92%. Under `CCCSc1nc(N2CCC[C@@H](CC(=O)O)C2)ccc1C(=O)N(C)[C@H]1C2CC3CC1C[C@](O)(C3)C2` [Example 171, [(3S)-1-{5-[((2r,5s)-5-Hydroxyadamantan-2-yl)(methyl)carbamoyl]-6-(propylthio)pyridin-2-yl}piperidin-3-yl]acetic acid] stands 97%; under `CCCSc1nc(N2CCC[C@@H](CC(=O)O)C2)ccc1C(=O)NC12CC3CC(CC(C3)C1)C2` [Example 172, {(3S)-1-[5-(Adamantan-1-ylcarbamoyl)-6-(Propylthio)pyridin-2-yl]piperidin-3-yl}acetic acid], 88%; under `CCCSc1nc(N2CCC[C@@H](CC(=O)O)C2)ccc1C(=O)NC1CCOCC1` [Example 173], 92%. For `CCCSc1nc(N2CCC[C@@H](CC(=O)O)C2)ccc1C(=O)N(C)C1CCOCC1` [Example 174, [(3S)-1-{5-[Methyl(tetrahydro-2H-pyran-4-yl)carbamoyl]-6-(propylthio)pyridin-2-yl}piperidin-3-yl]acetic acid], the inhibition at 30 µM worked out at 92%. In the case of `O=C(O)C[C@@H]1CCN(c2ccc(C(=O)N[C@H]3C4CC5CC3C[C@](OC(F)F)(C5)C4)c(SC3CCCCC3)n2)C1` [Example 175, 2-[(3S)-1-[6-Cyclohexylsulfanyl-5-[[(2r,5s)-5-(difluoromethoxy)-2-adamantyl]carbamoyl]pyridin-2-yl]pyrrolidin-3-yl]acetic acid], the inhibition at 30 µM amounted to 91%. With `O=C(O)C[C@@H]1CCCN(c2ccc(C(=O)N[C@H]3C4CC5CC3C[C@](OC(F)F)(C5)C4)c(SC3CCCCC3)n2)C1` [Example 176, 2-[(3S)-1-[6-Cyclohexylsulfanyl-5-[[(2r,5s)-5-(difluoromethoxy)-2-adamantyl]carbamoyl]pyridin-2-yl]-3-piperidyl]acetic acid], the inhibition at 30 µM was 92%. The same measure for `O=C(O)C[C@@H]1CCCN(c2ccc(C(=O)N[C@H]3C4CC5CC3C[C@](OC(F)F)(C5)C4)c(SC3CCCC3)n2)C1` [Example 178, 2-[(3S)-1-[6-Cyclopentylsulfanyl-5-[[(2r,5s)-5-(difluoromethoxy)-2-adamantyl]carbamoyl]pyridin-2-yl]-3-piperidyl]acetic acid]: 93%; for `CCCSc1nc(N2CCC[C@@H](CC(=O)O)C2)ccc1C(=O)N[C@H]1C2CC3CC1C[C@](OC(F)F)(C3)C2` [Example 179, 2-[(3S)-1-[5-[[(2r,5s)-5-(Difluoromethoxy)-2-adamantyl]carbamoyl]-6-propylsulfanyl-pyridin-2-yl]-3-piperidyl]acetic acid]: 87%. Under `CCCSc1nc(N2CC[C@@H](CC(=O)O)C2)ccc1C(=O)N[C@H]1C2CC3CC1C[C@](OC(F)F)(C3)C2` [Example 180, 2-[(3S)-1-[5-[[(2r,5s)-5-(Difluoromethoxy)-2-adamantyl]carbamoyl]-6-propylsulfanyl-pyridin-2-yl]pyrrolidin-3-yl]acetic acid] stands 95%. As for `CCCOc1nc(N2CCC[C@@H](CC(=O)O)C2)ccc1C(=O)N[C@H]1C2CC3CC1C[C@](OC(F)F)(C3)C2` [Example 181, 2-[(3S)-1-[5-[[(2r,5s)-5-(Difluoromethoxy)-2-adamantyl]carbamoyl]-6-propoxy-pyridin-2-yl]-3-piperidyl]acetic acid], the inhibition at 30 µM worked out at 93%.
